This is an account of results in patent US20130004477A1, “Methods for Treating Inflammation and Oxidative Stress Related Diseases” (priority 2009, published 2013).

Read-outs that look alike come from different tables or passages of the source.

One data set deals with healthy volunteers. To be noted: Phase 1 single-dose; cited from earlier work.
The target in the next data set is MPO (Homo sapiens, UniProt P05164). To be noted: 1 U/ml MPO, 100 mM Cl^−, 5 minutes. The protocol:
Reaction mixtures contained MPO (1 U/ml), NaCl (100 mM), NaSCN (0-400 μM), and sodium phosphate (100 mM, pH 7.0). Reactions were initiated by adding 50 μM H2O2 to the mixture, and stopped 5 minutes later by adding 1 μM catalase to decompose remaining H2O2 to H2O and O2. Blank reactions contained no H2O2. The concentrations of OCl^− and OSCN^−were determined using the taurine chloramine assay. OCl^− and OSCN^− react with taurine to form taurine chloramine. The latter oxidizes yellow 5-thio-2-nitrobenzoic acid (ε412=14,100 M^−1 cm^−1) to colorless 5,5′-dithiobis-2-nitrobenzoic acid. The drop in absorbance at 412 nm (after subtracting the blank) reflects the total concentration of OCl^− plus OSCN^− produced. […] Methionine was added immediately after the addition of catalase but 5 minutes before the taurine chloramine assay. This five minute interval allowed methionine to reduce OCl^−. Unless specified otherwise, all reagents were purchased from Sigma-Aldrich.

For data set [1] the following is noted: non-enzymatic reaction; cited from earlier work.
In a further data set the test system is Calu-3 cells. The data set can be described thus: Cell viability assay: H2O2 cytotoxicity in Calu-3 cells. In kind it is cell-based, human. To be noted: SCN^− alone, GO 20 mU/ml. The protocol:
(§1) (the number of independent trials is indicated in parentheses).
(§2) Four types of cell, Calu-3, Min6 (58), Neuro-2A, and HAEC (Invitrogen Inc.) were plated in 48-well culture plates (3.5×10^4 to 2×10^5 per well). Twenty-four to forty-eight hours later, cells were washed with Earl's balanced salt solution (EBSS) before subsequent studies. EBSS contained: NaCl (116 mM), glucose (5.5 mM), KCl (5.4 mM), CaCl2 (1.8 mM), MgSO4 (2.2 mM), NaH2PO4 (1 mM), and NaHCO3 (26 mM); pH 7.0. […] LPO (1 U/ml) and NaSCN (100 or 400 μM) were added to protect cells from injuries caused by H2O2. For the MPO studies, cells were first incubated for one hour in EBSS containing MPO (1 U/ml). The MPO reaction was initiated by adding 10 mU/ml GO to generate H2O2, and cells were maintained in a 37° C. incubator (5% CO2) for three additional hours. […] After incubation, cells were trypsinized, pelleted, and resuspended in a phosphate buffer solution (PBS), which contains NaCl (137 mM), KCl (2.7 mM), Na2HPO4 (4.3 mM) and KH2PO4 (1.4 mM); pH 7.3. Non-viable cells were identified by staining with 0.2% Trypan blue (Invitrogen, Inc.). Both stained and unstained cells were counted with a hemocytometer in double blind experiments.

For another data set, the system named is CF mice. The protocol:
Mouse pups, weaned at day ˜28, had access to drinking water and solid mouse food. […] All pictures were taken at the same magnification (20× objective). […] In panels C and F, the green, yellow and black arrows point to a villus, a goblet cell and a mucus plug, respectively.
The body length (A) and weight (B) (mean±s.e.m.) of CF and heterozygous mice were determined 30, 60, and 90 days after weaning
FIGS. 7B-G, show standard Alcian Blue-stained (5 μm-thick) sections of large (FIG. 7B-D) and small (FIG. 7E-G) intestines (Alcian Blue specifically stains mucin; http://www.protocol-online.org).
Mouse pups, weaned at day ˜28, had access to drinking water and solid mouse food. […] In FIGS. 7C and 7F, the green, yellow and black arrows point to a villus, a goblet cell and a mucus plug, respectively.
The body length (A) and weight (B) (mean±s.e.m.) of CF and heterozygous mice were determined 30, 60, and 90 days after.

The next data set relates to Neuro-2A cells. To be noted: GO 10 mU/ml, MPO 1 U/ml. The protocol:
as §1, §2

In a further data set the test system is Min6 cells. To be noted: 400 μM SCN^−; GO 10 mU/ml, MPO 1 U/ml. The method, then:
as §1, §2

Data set [2] deals with human aortic endothelial cells (HAEC). To be noted: 400 μM SCN^−; GO 5 mU/ml, MPO 1 U/ml. The method, then: as §1, §2
For the next data set, the target named is T1, CFTR (Homo sapiens, UniProt P13569, G551D).
T1 construct: endogenous in cells; host or cells: CF patients (nasal epithelium, sweat glands, lungs)
T1 sequence (P13569 whole entry G551D): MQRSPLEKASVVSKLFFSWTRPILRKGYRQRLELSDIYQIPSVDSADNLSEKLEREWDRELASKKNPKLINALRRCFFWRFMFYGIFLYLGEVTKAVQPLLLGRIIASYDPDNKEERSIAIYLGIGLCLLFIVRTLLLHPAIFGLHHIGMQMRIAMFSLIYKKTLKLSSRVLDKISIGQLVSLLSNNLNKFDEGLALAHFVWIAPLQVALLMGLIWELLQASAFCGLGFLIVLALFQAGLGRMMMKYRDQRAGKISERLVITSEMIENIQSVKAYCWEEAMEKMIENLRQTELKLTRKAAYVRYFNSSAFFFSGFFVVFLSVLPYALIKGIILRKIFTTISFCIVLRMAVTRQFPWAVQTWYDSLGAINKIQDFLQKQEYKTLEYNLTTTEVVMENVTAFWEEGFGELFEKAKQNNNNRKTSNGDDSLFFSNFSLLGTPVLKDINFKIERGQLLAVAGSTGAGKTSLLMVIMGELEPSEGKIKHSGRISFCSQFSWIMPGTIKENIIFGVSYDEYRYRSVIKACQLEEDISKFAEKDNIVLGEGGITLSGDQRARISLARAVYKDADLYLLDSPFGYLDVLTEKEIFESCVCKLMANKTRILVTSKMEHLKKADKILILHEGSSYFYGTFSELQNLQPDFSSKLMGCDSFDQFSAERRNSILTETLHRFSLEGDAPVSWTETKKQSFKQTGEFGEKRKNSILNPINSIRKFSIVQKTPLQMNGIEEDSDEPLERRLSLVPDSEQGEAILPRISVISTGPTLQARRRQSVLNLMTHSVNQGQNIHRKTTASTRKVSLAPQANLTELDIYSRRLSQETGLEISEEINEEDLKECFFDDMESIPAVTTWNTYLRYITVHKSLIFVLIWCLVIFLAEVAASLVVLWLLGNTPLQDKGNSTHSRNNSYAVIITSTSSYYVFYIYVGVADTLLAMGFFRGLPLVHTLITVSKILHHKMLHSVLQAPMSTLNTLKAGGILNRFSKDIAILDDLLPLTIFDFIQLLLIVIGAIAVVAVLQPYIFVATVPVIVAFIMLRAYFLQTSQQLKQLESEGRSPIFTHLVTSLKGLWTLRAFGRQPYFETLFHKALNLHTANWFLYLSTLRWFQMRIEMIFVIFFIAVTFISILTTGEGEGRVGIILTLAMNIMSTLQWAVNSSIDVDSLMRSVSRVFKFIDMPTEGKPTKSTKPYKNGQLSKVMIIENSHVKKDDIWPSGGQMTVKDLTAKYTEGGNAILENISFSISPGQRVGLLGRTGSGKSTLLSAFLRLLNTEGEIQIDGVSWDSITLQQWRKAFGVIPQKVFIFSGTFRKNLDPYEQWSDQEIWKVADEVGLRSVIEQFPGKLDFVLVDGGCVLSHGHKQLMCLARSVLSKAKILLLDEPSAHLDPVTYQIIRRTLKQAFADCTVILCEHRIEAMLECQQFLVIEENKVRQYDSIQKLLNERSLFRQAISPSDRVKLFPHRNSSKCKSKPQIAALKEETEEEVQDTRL
To be noted: CF patients with at least one copy of the G551D mutation; Phase II; cited from earlier work.

In a further data set the test system is CF patients. To be noted: high doses; cited from earlier work.
The mark [3] stands for this setting: single dose of thiocyanate (1 mM).
[4] abbreviates: 1 mM thiocyanate in drinking water, 30, 60, 90 days after weaning.

MPO, sequence (P05164 49-745, species assumed): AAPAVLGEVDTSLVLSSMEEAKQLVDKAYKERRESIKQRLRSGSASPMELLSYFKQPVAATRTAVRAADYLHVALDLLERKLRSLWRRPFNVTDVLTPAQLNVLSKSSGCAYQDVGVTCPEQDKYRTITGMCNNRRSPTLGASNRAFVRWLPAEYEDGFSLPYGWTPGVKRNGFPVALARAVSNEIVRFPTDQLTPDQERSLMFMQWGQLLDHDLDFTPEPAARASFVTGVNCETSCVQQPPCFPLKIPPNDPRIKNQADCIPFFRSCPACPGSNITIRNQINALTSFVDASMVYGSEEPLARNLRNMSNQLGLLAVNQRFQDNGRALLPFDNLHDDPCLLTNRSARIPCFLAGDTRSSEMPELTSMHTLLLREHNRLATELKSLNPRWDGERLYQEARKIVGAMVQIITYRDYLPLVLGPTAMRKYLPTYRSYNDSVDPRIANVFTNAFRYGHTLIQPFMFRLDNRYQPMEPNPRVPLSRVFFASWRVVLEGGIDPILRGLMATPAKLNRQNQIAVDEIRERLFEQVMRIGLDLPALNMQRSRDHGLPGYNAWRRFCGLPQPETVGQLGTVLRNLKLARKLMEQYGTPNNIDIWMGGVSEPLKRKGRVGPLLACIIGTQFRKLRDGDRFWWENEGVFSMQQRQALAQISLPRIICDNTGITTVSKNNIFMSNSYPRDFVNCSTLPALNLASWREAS

As to `O=C(O)c1cccc(-c2noc(-c3ccccc3F)n2)c1` [Ataluren], in the data set on healthy volunteers, the “safety, oral availability and tolerability” value is “safe, orally available and well tolerated”.
Regarding `N#CS` [SCN^−, thiocyanate], the “inhibition of MPO-catalyzed production of OCl^−” value at MPO (10 μM SCN^−) was “inhibited only slightly, if at all”; on MPO (50 μM SCN^−), “partially inhibited”; against MPO (100-400 μM SCN^−), “inhibited almost completely”. In addition, the “production of OSCN^− and OCl^− with increasing SCN^− concentration” value at MPO is “boosted the production of OSCN^− but depressed that of OCl^−”. Moreover, the “second-order rate constant of oxidation by OCl^− to OSCN^−” value in data set [1] is 2.3e+07 M⁻¹ s⁻¹. In addition, the “protection against H2O2 cell injury” value in the data set with Calu-3 cells (100 μM) was “Neither SCN^− (100 or 400 μM), nor LPO (1 U/ml) alone provided any significant protection”; in the data set with Calu-3 cells (400 μM) it was “Neither SCN^− (100 or 400 μM), nor LPO (1 U/ml) alone provided any significant protection”. The “protection for CF piglets” value with CF piglets (given to pig mothers during pregnancy and to piglets after birth, up to 20 mg/kg daily, with or without iodine) is recorded as “improved protection”. Also, the “effect on meconium in CF piglets” value in the data set on CF piglets (setting [3]) is “loosening meconium”. Besides, the “survival of CF piglets” value in the data set with CF piglets (setting [3]) is “does not survive them”. Besides, the “CF mice survived beyond 90 days” value in the data set on CF mice (1 mM thiocyanate in drinking water (mothers before weaning, pups after weaning)) is given as 10 of the 15. For the same molecule, in the data set on CF mice (setting [4]), the “body length of CF mice” value is listed as “normalizes”. In the data set on CF mice (setting [4]), the “body weight of CF mice” value is reported as “normalizes”. In addition, the “survival of CF mice” value in the data set on CF mice (oral thiocyanate, 1 mM in drinking water) is recorded as “prolongs the survival”. Further, the “protection against MPO activity” value (with Neuro-2A cells (100 μM SCN^−); in the data set on Neuro-2A cells (400 μM SCN^−); in the data set with Min6 cells; in [2]) was “virtually fully protected” each time.
Consider `CC(C)(C)c1cc(C(C)(C)C)c(NC(=O)c2c[nH]c3ccccc3c2=O)cc1O` [VX-770], for which, at CFTR, the “biological measures of CFTR function (nasal potential difference and sweat chloride)” value is listed as “improvements”; the “clinical measures of pulmonary health (FEV1)” value was “improvements”.
Take `CC(C)Cc1ccc(C(C)C(=O)O)cc1` (stereo not shown) [ibuprofen]: the CF disease progression entry with CF patients was “slow disease progression”.
